Experimental findings from US20250163091A1, “FUNCTIONALIZED HUMAN MILK OLIGOSACCHARIDES AND METHODS FOR PRODUCING THEM” (The Regents of the University of California, priority 2022, published 2025) are described below.

A short description of the experiment: Assays for synthesizing FDS-LNTβNHCbz (48) from S-LNF-IIβNHCbz (37). In kind it is biochemical. Particulars: 30° C., analyzed by HRMS at 24 hours and 72 hours. The method, then:
Assays for synthesizing FDS-LNTβNHCbz (48) from S-LNF-IIβNHCbz (37). Assays were carried out at 30° C. in a total volume of 10 μL in Tris-HCl buffer (100 mM, pH 7.5) containing (10 mM), CMP-Neu5Ac (15 mM), MgCl2 (20 mM), MBP-Δ50hST6GALNAC V_ext20-Hiss ([…]), MBP-Δ50hST6GALNAC V_V99M-His6, or MBP-Δ50hST6GALNAC V_V99M_ext20-His6. The reactions were analyzed by HRMS at 24 hours and 72 hours. The formation of FDS-LNTβNHCbz (48) was observed (FIGS. 71A and 71B), and the conversion was around 40-50% after 72 h incubation using MBP-Δ50hST6GALNAC V_ext20-His6.

Regarding “MBP-Δ50hST6GALNAC V_V99M-His6: V99M mutant of recombinant human ST6GALNAC V with N-terminal MBP and C-terminal His6”, the “formation of FDS-LNTβNHCbz (48)” value was “formation of the target product was also observed”.
